Read-outs that look alike come from different tables or passages of the source.
How the values were obtained:
CYP2C19 = CYP2C19 (Homo sapiens, UniProt P33261); assay: In vitro inhibition of human cytochrome P450 CYP2C19 (fluorometric, 3-cyano-7-ethoxycoumarin substrate)
Experimental: (§1) In Vitro Inhibition of Human Cytochrome P450 Enzymes
(§2) Solution A: NADPH-Regenerating System
To a glass tube on ice were added sequentially: Water (8 mL) in NADP+ (20 mg), glucose-6-phosphate (20 mg), magnesium chloride hexahydrate (13.3 mg) and glucose-6-phosphate dehydrogenase (60 units).
Solution A was transferred to a 96-well black plate (80 microliter per well), followed by various concentrations of a solution of paroxetine in 20% acetonitrile-water (20 microliter per well). The reaction was initiated by adding 100 microliter of solution B to each well of the 96-well plate. The plate was incubated for 30 minutes at 37° C. in the dark. The reaction was stopped by adding 75 microliter of stop buffer (4:1 acetonitrile-0.5 M Tris base) to each well, and the end point was measured in a fluorometer plate reader at λex=409 nm and λem=460 nm.

CYP2D6 = CYP2D6 (Homo sapiens, UniProt P10635); assay: In vitro inhibition of human cytochrome P450 CYP2D6 (fluorometric, 3-[2-(N,N diethyl-N-methylamino)ethyl]-7-methoxy-4-methylcoumarin substrate); type: in vitro ADME; conditions: for IC50: 40 minutes at 37° C.; for times the amount of compound needed to inhibit CYP2D6 than non-isotopically enriched zamifenacin: ratio versus non-isotopically enriched zamifenacin (IC50 0.33 μM)
CYP2D6, sequence (P10635 whole entry): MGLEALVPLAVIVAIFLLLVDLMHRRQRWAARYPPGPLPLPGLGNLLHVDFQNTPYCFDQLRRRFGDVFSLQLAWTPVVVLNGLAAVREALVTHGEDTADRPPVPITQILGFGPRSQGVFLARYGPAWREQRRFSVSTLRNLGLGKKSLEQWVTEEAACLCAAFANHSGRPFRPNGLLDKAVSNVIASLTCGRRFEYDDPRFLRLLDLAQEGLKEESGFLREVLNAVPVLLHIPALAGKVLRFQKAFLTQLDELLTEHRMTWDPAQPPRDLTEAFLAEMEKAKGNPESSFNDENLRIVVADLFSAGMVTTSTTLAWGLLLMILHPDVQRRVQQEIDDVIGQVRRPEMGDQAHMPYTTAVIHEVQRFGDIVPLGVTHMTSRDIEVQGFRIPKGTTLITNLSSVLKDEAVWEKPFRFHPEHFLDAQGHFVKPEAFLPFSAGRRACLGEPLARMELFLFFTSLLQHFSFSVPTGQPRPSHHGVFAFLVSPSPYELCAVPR
Experimental: as §1, §2
The plate was incubated for 40 minutes at 37° C. in the dark.

[1] = read-out: IC50 for inhibition of CYP2D6

CYP2C19, sequence (P33261 whole entry): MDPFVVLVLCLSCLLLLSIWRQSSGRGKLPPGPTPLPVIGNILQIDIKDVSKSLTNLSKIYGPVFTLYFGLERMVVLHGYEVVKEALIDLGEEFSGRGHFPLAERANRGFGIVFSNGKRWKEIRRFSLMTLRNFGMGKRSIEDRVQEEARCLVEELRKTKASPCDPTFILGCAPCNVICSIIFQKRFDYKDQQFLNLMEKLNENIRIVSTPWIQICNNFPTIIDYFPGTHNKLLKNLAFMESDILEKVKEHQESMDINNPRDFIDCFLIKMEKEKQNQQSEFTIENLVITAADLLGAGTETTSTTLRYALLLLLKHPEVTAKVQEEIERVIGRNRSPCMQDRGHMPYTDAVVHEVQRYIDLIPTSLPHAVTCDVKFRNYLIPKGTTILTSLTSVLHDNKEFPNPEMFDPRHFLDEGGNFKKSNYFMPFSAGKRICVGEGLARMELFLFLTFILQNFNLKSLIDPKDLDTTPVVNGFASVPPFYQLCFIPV

| SMILES | IC50 (CYP2C19) [µM] | IC50 (CYP2D6; [1]) [µM] | times the amount of compound needed to inhibit CYP2D6 than non-isotopically enriched zamifenacin (CYP2D6) [times] | IC50 (CYP2D6; positive control, read-out: IC50 for inhibition of CYP2D6 (positive control)) [µM] |
| --- | --- | --- | --- | --- |
| [2H]C1([2H])Oc2ccc(C([2H])([2H])C([2H])([2H])N3CCCC(OC(c4ccccc4)c4ccccc4)C3)cc2O1 (stereo not shown) [Example 4, d6-3-Benzhydryloxy-1-(2-benzo[1,3]dioxol-5-yl-ethyl)-piperidine] | 5.3 | 0.42 | 1.3 | – |
| [2H]C1([2H])Oc2ccc(CCN3CCCC(OC(c4ccccc4)c4ccccc4)C3)cc2O1 (stereo not shown) [Example 3, d2-3-Benzhydryloxy-1-(2-benzo[1,3]dioxol-5-yl-ethyl)-piperidine] | 5.1 | 0.4 | 1.2 | – |
| Cc1nc2c([nH]1)c(=O)n(C)c(=O)n2Cc1ccco1 [Furafylline, reference compound] | – | – | – | 0.0145 |
| [2H]C([2H])(c1ccc2c(c1)OCO2)C([2H])([2H])N1CCCC(OC(c2ccccc2)c2ccccc2)C1 (stereo not shown) [Example 2, d4-3-Benzhydryloxy-1-(2-benzo[1,3]dioxol-5-yl-ethyl)-piperidine] | 4 | – | – | – |
| c1ccc(C(OC2CCCN(CCc3ccc4c(c3)OCO4)C2)c2ccccc2)cc1 (stereo not shown) [zamifenacin, 3-benzhydryloxy-1-(2-benzo[1,3]dioxol-5-yl-ethyl)-piperidine, reference compound] | 3.6 | 0.33 | – | – |
